Data reported in patent publication US8338436B2, “Amorphous form of N-{2-fluoro-5-[3-(thiophene-2-carbonyl)-pyrazolo[1,5-a]pyrimidin-7-yl]-phenyl}-N-methyl-acetamide” (Ferrer International, S.A., priority 2006, dated 2012).

Key:
[1] = system: GABAA (γ-aminobutyric acidA) receptors; assay: GABAA receptor ligand activity; assay type: binding; settings: amorphous form, stated to be like crystalline compound (I)
[2] = Solubility of solid forms of compound (I)
[3] = system: GABAA (γ-aminobutyric acidA) receptors; settings: as described in PCT/EP2006/063243 and U.S. 60/692866; cited from earlier work

CC(=O)N(C)c1cc(-c2ccnc3c(C(=O)c4cccs4)cnn23)ccc1F [amorphous form, N-{2-Fluoro-5-[3-(thiophene-2-carbonyl)-pyrazolo[1,5-a]pyrimidin-7-yl]-phenyl}-N-methyl-acetamide]
ligand of GABAA [1]: potent ligand
solubility of the amorphous form relative to crystalline product ([2]; amorphous versus crystalline product): about twice as high

CC(=O)N(C)c1cc(-c2ccnc3c(C(=O)c4cccs4)cnn23)ccc1F [crystalline form of compound (I), N-{2-Fluoro-5-[3-(thiophene-2-carbonyl)-pyrazolo[1,5-a]pyrimidin-7-yl]-phenyl}-N-methyl-acetamide]
solubility ([2]; crystalline form, qualitative statement): very low soluble

CC(=O)N(C)c1cc(-c2ccnc3c(C(=O)c4cccs4)cnn23)ccc1F [compound (I), N-{2-Fluoro-5-[3-(thiophene-2-carbonyl)-pyrazolo[1,5-a]pyrimidin-7-yl]-phenyl}-N-methyl-acetamide]
ligand of GABAA receptors [3]: potent ligand
